Assay results published in patent US5118392A, “Separation of trichloroethylene from a butyl alcohol by extractive distillation” (priority 1991, dated 1992).
Where two headings read alike, the source gives them in different places.

Assays:
[1] = Vapor-liquid equilibrium still, t-butanol-trichloroethylene azeotrope with extractive distillation agent; assay type: physicochemical; conditions: for Relative Volatility: trichloroethylene from t-butanol, Table 10
Source text: (§1) The data in Tables 2, 3, 5, 7, 8, 10 and 11 was obtained in a vapor-liquid equilibrium still. In every case, the starting mixture was the trichloroethylene-butanol azeotrope. The relative volatilities are listed for each of the agents.
Seventy grams of the t-butanol-trichloroethylene azeotrope and 30 grams of n-butyl acetate were charged to the vapor-liquid equilibrium still and refluxed for fourteen hours.

[2] = Vapor-liquid equilibrium still, trichloroethylene-n-butanol azeotrope with extractive distillation agent; assay type: physicochemical
[3] = Vapor-liquid equilibrium still, trichloroethylene-2-butanol azeotrope with extractive distillation agent; assay type: physicochemical
Source text: as §1
Seventy grams of the trichloroethylene-2-butanol azeotrope and 30 grams of 2-methyl-1-pentanol were charged to the vapor-liquid equilibrium still and refluxed for two hours.

[4] = Glass perforated plate rectification column (7.3 theoretical plates), trichloroethylene / 2-butanol; assay type: physicochemical
Source text: The overhead analysis was 98.2% trichloroethylene, 1.8% 2-butanol and the bottoms analysis was 65.6% trichloroethylene, 34.4% 2-butanol. This gives an average relative volatility of 1.59 for each theoretical plate.

[5] = Vapor-liquid equilibrium still, trichloroethylene-isobutanol azeotrope with extractive distillation agent; assay type: physicochemical
Source text: as §1
Seventy grams of the trichloroethylene-isobutanol azeotrope and 30 grams of n-octanol were charged to the vapor-liquid equilibrium still and refluxed for five hours.

[6] = Experimental: A solution comprising 170 grams of trichloroethylene and 30 grams of t-butanol was placed in the stillpot of the 7.3 theoretical plate glass perforated plate rectification column. When refluxing began, an extractive agent comprising n-butyl acetate was pumped into the column at a rate of 15 ml/min. The temperature of the extractive agent as it entered the column was 85° C. After establishing the feed rate of the extractive agent, the heat input to the trichloroethylene-t-butanol in the stillpot was adjusted to give a total reflux rate of 40 ml/min. After two hours of operation, the overhead and bottoms samples were collected and analysed.
[7] = Glass perforated plate rectification column (7.3 theoretical plates), trichloroethylene / isobutanol; assay type: physicochemical
Source text: The overhead analysis was 97.7% trichloroethylene, 2.3% isobutanol and the bottoms analysis was 84.8% trichloroethylene, 15.2% isobutanol. This gives an average relative volatility of 1.31 for each theoretical plate.

[8] = trichloroethylene from n-butanol, Table 2
[9] = trichloroethylene from 2-butanol, Table 7
[10] = trichloroethylene from isobutanol, Table 5
[11] = Example 7, refluxed fourteen hours
[12] = bottoms, 2 hrs, listed as n-butyl acetate
[13] = overhead, 2 hrs, listed as n-butyl acetate

## 2-Methoxyethyl ether acetate
[1]
  Relative Volatility: 1.85

## CC(=O)O[C@@H]1C[C@H]2CC[C@]1(C)C2(C)C (racemic) [Isobornyl acetate]
[2]; [8]
  Relative Volatility: 1.25

## COCC(C)OC(C)=O (stereo not shown) [1-Methoxy-2-propanol acetate]
[1]
  Relative Volatility: 1.65
[2]
  Relative Volatility: 1.5

## COCC(C)O (stereo not shown) [1-Methoxy-2-propanol]
[1]
  Relative Volatility: 1.65

## CCCCCCCCO [1-Octanol]
[3]; [9]
  Relative Volatility: 1.5

## CC(=O)CC(C)=O [2,4-Pentanedione]
[1]
  Relative Volatility: 1.4

## CC(C)CC(=O)CC(C)C [2,6-Dimethyl-4-heptanone]
[2]; [8]
  Relative Volatility: 1.35

## CCC(CC)CO [2-Ethyl butanol]
[3]; [9]
  Relative Volatility: 1.85

## CCCCC(CC)CO (stereo not shown) [2-Ethyl-1-hexanol]
[3]; [9]
  Relative Volatility: 1.55

## CCCCCC(C)=O [2-Heptanone]
[2]; [8]
  Relative Volatility: 1.7

## CCCC(C)CO (stereo not shown) [2-Methyl pentanol]
[2]; [8]
  Relative Volatility: 3.5

## CCCC(C)CO (stereo not shown) [2-Methyl-1-pentanol]
[4]; 1 hr
  Relative Volatility (per theoretical plate): 1.49
[4]; 2 hrs
  Relative Volatility (average, per theoretical plate): 1.59
[4]; bottoms, 1 hr
  Weight % 2-Butanol: 30.7%
  Weight % C2 H Cl3: 69.3%
[4]; bottoms, 2 hrs
  Weight % 2-Butanol: 34.4%
  Weight % C2 H Cl3: 65.6%
[4]; overhead, 1 hr
  Weight % 2-Butanol: 2.4%
  Weight % C2 H Cl3: 97.6%
[4]; overhead, 2 hrs
  Weight % 2-Butanol: 1.8%
  Weight % C2 H Cl3: 98.2%
[5]; [10]
  Relative Volatility: 2.2
[3]; Example 5, refluxed two hours
  liquid composition, 2-butanol: 19.5%
  liquid composition, trichloroethylene: 80.5%
  vapor composition, 2-butanol: 11.9%
  vapor composition, trichloroethylene: 88.1%
[3]; Example 5: 70 g azeotrope, 30 g agent, refluxed two hours
  Relative Volatility: 1.75
[3]; [9]
  Relative Volatility: 1.6

## CCCCCCC(C)O (stereo not shown) [2-Octanol]
[5]; [10]
  Relative Volatility: 2.7

## CCCCCCC(C)=O [2-Octanone]
[2]; [8]
  Relative Volatility: 1.4

## CCCC(C)=O [2-Pentanone]
[1]
  Relative Volatility: 1.9

## CCCCC(=O)CC [3-Heptanone]
[1]
  Relative Volatility: 1.35

## CCCC(=O)CC [3-Hexanone]
[1]
  Relative Volatility: 1.55

## CCC(C)(O)CC [3-Methyl-3-pentanol]
[3]; [9]
  Relative Volatility: 1.35

## CCCCCC(=O)CC [3-Octanone]
[2]; [8]
  Relative Volatility: 1.35

## OCCCc1ccccc1 [3-Phenyl-1-propanol]
[3]; [9]
  Relative Volatility: 1.65

## CC(C)CC(C)O (stereo not shown) [4-Methyl-2-pentanol]
[5]; [10]
  Relative Volatility: 2.7

## CC(=O)CC(C)C [4-Methyl-2-pentanone]
[1]
  Relative Volatility: 1.5

## CC(=O)CCC(C)C [5-Methyl-2-hexanone]
[1]
  Relative Volatility: 1.3
[2]; [8]
  Relative Volatility: 1.6

## CC(=O)CCC(C)=O [Acetonylacetone]
[2]; [8]
  Relative Volatility: 2.6

## CC(=O)c1ccccc1 [Acetophenone]
[2]; [8]
  Relative Volatility: 1.6

## OCc1ccccc1 [Benzyl alcohol]
[5]; [10]
  Relative Volatility: 2.0
[2]; [8]
  Relative Volatility: 3.5

## OC1CCCCC1 [Cyclohexanol]
[5]; [10]
  Relative Volatility: 2.4
[2]
  Relative Volatility: 3.5

## CC(=O)CC(C)(C)O [Diacetone alcohol]
[5]; [10]
  Relative Volatility: 1.3
[3]; [9]
  Relative Volatility: 1.45

## CC(C)CC(O)CC(C)C [Diisobutyl carbinol]
[5]; [10]
  Relative Volatility: 1.6
[3]; [9]
  Relative Volatility: 1.35
[2]; [8]
  Relative Volatility: 1.4

## CC(C)CC(=O)CC(C)C [Diisobutyl ketone]
[1]
  Relative Volatility: 1.4
[2]; [8]
  Relative Volatility: 1.4

## CN(C)C=O [Dimethylformamide]
[2]
  Relative Volatility: 4.5

## CCCC(=O)OCC [Ethyl butyrate]
[1]
  Relative Volatility: 1.5

## CCOCCC(=O)OCC [Ethyl ethoxy propionate]
[1]
  Relative Volatility: 1.45

## CCOC(=O)CC(C)C [Ethyl isovalerate]
[1]
  Relative Volatility: 1.5
[2]; [8]
  Relative Volatility: 1.45

## CCOC(=O)CC [Ethyl propionate]
[1]
  Relative Volatility: 2.4

## CCCCC(=O)OCC [Ethyl valerate]
[1]
  Relative Volatility: 1.65
[2]; [8]
  Relative Volatility: 3.0

## CCCCCCCO [Heptyl alcohol]
[5]; [10]
  Relative Volatility: 1.95
[3]; [9]
  Relative Volatility: 1.55

## CCCCCCOC(C)=O [Hexyl acetate]
[1]
  Relative Volatility: 1.4

## CCCCCCO [Hexyl alcohol]
[3]; [9]
  Relative Volatility: 2.6

## CC(=O)OCCC(C)C [Isoamyl acetate]
[1]
  Relative Volatility: 1.5

## CC(C)CCO [Isoamyl alcohol]
[5]; [10]
  Relative Volatility: 1.9

## CC(=O)OCC(C)C [Isobutyl acetate]
[1]
  Relative Volatility: 1.4

## CCCC(=O)OCC(C)C [Isobutyl butyrate]
[1]
  Relative Volatility: 1.65

## CC(C)COC(=O)C(C)C [Isobutyl isobutyrate]
[1]
  Relative Volatility: 1.45
[2]
  Relative Volatility: 1.5

## CC(C)CCCCCCCO [Isodecyl alcohol]
[2]
  Relative Volatility: 3.6

## CC(C)CCCO [Isohexyl alcohol]
[5]; [10]
  Relative Volatility: 2.6

## CC(C)CCCCCCO [Isononyl alcohol]
[3]; [9]
  Relative Volatility: 1.35

## CC(C)CCCCCO [Isooctanol]
[5]; [10]
  Relative Volatility: 1.6

## CC(C)CCCCCO [Isooctyl alcohol]
[3]; [9]
  Relative Volatility: 1.7

## CC1=CC(=O)CC(C)(C)C1 [Isophorone]
[5]; [10]
  Relative Volatility: 1.6
[2]; [8]
  Relative Volatility: 1.45

## CC(=O)CCC(C)C [Methyl isoamyl ketone]
[1]
  Relative Volatility: 1.4

## CC(C)CC(C)O (stereo not shown) [Methyl isobutyl carbinol]
[2]; [8]
  Relative Volatility: 2.4

## CC(=O)CC(C)C [Methyl isobutyl ketone]
[1]
  Relative Volatility: 1.3

## CC(=O)C(C)C [Methyl isopropyl ketone]
[1]
  Relative Volatility: 1.3

## CCCCCCCCCO [Nonyl alcohol]
[5]; [10]
  Relative Volatility: 3.8

## OCCc1ccccc1 [Phenethyl alcohol]
[5]; [10]
  Relative Volatility: 1.55
[2]; [8]
  Relative Volatility: 2.5

## O=S1(=O)CCCC1 [Sulfolane]
[2]; [8]
  Relative Volatility: 2.5

## OCC1CCCO1 (stereo not shown) [Tetrahydrofurfuryl alcohol]
[5]; [10]
  Relative Volatility: 2.4
[3]; [9]
  Relative Volatility: 1.65
[2]
  Relative Volatility: 2.2

## CCCCCOC(C)=O [n-Amyl acetate]
[1]
  Relative Volatility: 1.7

## CCCCOC(C)=O [n-Butyl acetate]
[1]; [11]
  liquid composition, t-butanol: 31.7%
  liquid composition, trichloroethylene: 68.3%
  vapor composition, t-butanol: 55.5%
  vapor composition, trichloroethylene: 44.5%
[1]; Example 7: 70 g azeotrope, 30 g agent, refluxed fourteen hours
  relative volatility of t-butanol to trichloroethylene: 1.7
[1]
  Relative Volatility: 1.7
[6]; 1 hr
  Relative Volatility (per theoretical plate): 1.63
[6]; 2 hrs
  Relative Volatility (average, t-butanol to trichloroethylene, per theoretical plate): 2.15
[6]; bottoms, 1 hr
  Weight % C2 H Cl3: 6.1%
  Weight % t-Butanol: 93.9%
[6]; bottoms, 2 hrs
  Weight % C2 H Cl3: 4.1%
  Weight % t-Butanol: 95.9%
[6]; [12]
  Weight % C2 H Cl3: 95.9%
  Weight % t-Butanol: 4.1%
[6]; overhead, 1 hr
  Weight % C2 H Cl3: 70.3%
  Weight % t-Butanol: 29.7%
[6]; overhead, 2 hrs
  Weight % C2 H Cl3: 92.2%
  Weight % t-Butanol: 7.8%
[6]; [13]
  Weight % C2 H Cl3: 7.8%
  Weight % t-Butanol: 92.2%

## CCCCCCCCCCO [n-Decanol]
[5]; [10]
  Relative Volatility: 3.9
[2]; [8]
  Relative Volatility: 2.4

## CCCCCCO [n-Hexyl alcohol]
[2]; [8]
  Relative Volatility: 3.1

## CCCCCCCCCO [n-Nonyl alcohol]
[2]; [8]
  Relative Volatility: 2.5

## CCCCCCCCO [n-Octanol]
[5]; Example 3, refluxed five hours
  liquid composition, isobutanol: 6.1%
  liquid composition, trichloroethylene: 93.9%
  vapor composition, isobutanol: 4.6%
  vapor composition, trichloroethylene: 95.4%
[5]; Example 3: 70 g azeotrope, 30 g agent, refluxed five hours
  Relative Volatility: 1.3
[5]; [10]
  Relative Volatility: 1.3
[7]; 1 hr
  Relative Volatility (per theoretical plate): 1.275
[7]; 2 hrs
  Relative Volatility (average, per theoretical plate): 1.31
[7]; bottoms, 1 hr
  Weight % C2 H Cl3: 84.0%
  Weight % Isobutanol: 16.0%
[7]; bottoms, 2 hrs
  Weight % C2 H Cl3: 84.8%
  Weight % Isobutanol: 15.2%
[7]; overhead, 1 hr
  Weight % C2 H Cl3: 96.9%
  Weight % Isobutanol: 3.1%
[7]; overhead, 2 hrs
  Weight % C2 H Cl3: 97.7%
  Weight % Isobutanol: 2.3%
[2]; [8]
  Relative Volatility: 2.3

## CCCOC(C)=O [n-Propyl acetate]
[1]
  Relative Volatility: 2.9
